Measured values from patent publication US20230404863A1, “MICRONEEDLE PATCH AND PREPARATION METHOD THEREFOR” (SUZHOU REVEDA MEDICAL BIOTECH CO., LTD., priority 2020, published 2023).

Assay: Stability of astaxanthin in patch vs aqueous solution (UV spectrophotometer, color)
Format: physicochemical
Settings: room temperature
Text: Astaxanthin and resveratrol are easily oxidized and are very unstable in water and in emulsions. Due to immiscibility of resveratrol with water, it was first hydrophilically modified, and its stability in patches and that in solutions was compared. The patches were made of astaxanthin and the hydrophilically modified resveratrol, and the solutions were aqueous solutions of astaxanthin and the hydrophilically modified resveratrol at the same concentrations.

CC1=C(/C=C/C(C)=C/C=C/C(C)=C/C=C/C=C(C)/C=C/C=C(C)/C=C/C2=C(C)C(=O)[C@@H](O)CC2(C)C)C(C)(C)C[C@H](O)C1=O [astaxanthin]
Content of astaxanthin after 6 days vs the beginning (in aqueous solution at the same concentration, without avoiding exposure to light): significantly lower than that at the beginning
Color of astaxanthin after 6 days (in aqueous solution): became much lighter
